Assay results: US11819556B2, “Stabilized compositions of radionuclides and uses thereof” (RayzeBio, Inc., priority 2021, dated 2023)

Settings: 24 hours after mixing; 0.03 mCi/ml, excipient 1 mg/ml in sodium acetate-acetic acid buffer pH 5.80, 25° C.
Procedure: After drying in an incubator at a temperature of 38° C., the radio-TLC conversion was analyzed at different time points with a radio-TLC reader (Eckert & Ziegler AR-2000) set at High Voltage=1000 (to ensure alpha detection) until the ratio between labeled product and the free Ac225 ion no longer change (typically after 6-8 hours of TLC separation to ensure equilibrium between Ac225 and daughter nuclides).
The formulations were buffered with sodium acetate-acetic acid 0.4 M solution to pH 5.80 (±0.10). […] Sodium L-Ascorbate/L-Ascorbic acid buffer was adjusted to pH 5.80 (±0.10). Water for Injection (WFI) with the same dilution without any excipient is used as the control formulation. The mixture was kept at room temperature (25° C.).

| Compound | Percentage of ^225Ac present in [^225Ac]Ac-DOTA-TATE |
| --- | --- |
| CCO [10% EtOH, EtOH] | 96.35% |
| O=C(O)CC(O)(CC(=O)O)C(=O)O [Citric Acid] | 90.20% |
| O=S([O-])O.[Na+] [Sodium Bisulfite] | 0% |
| O=C(O)c1ccccc1O [Salicylic Acid] | 93.08% |
| CSCC[C@H](N)C(=O)O [L-Methionine] | 93.39% |
| CC(=O)N[C@@H](CS)C(=O)O [N-Acetyl-L-Cysteine] | 91.19% |
| N[C@@H](CCC(=O)N[C@@H](CS)C(=O)NCC(=O)O)C(=O)O [L-Glutathione] | 91.18% |
| O=C(O)CCCC[C@@H]1CCSS1 (racemic) [Lipoic Acid] | 92.97% |
| O=C(O)CN(CCN(CC(=O)O)CC(=O)O)CCN(CC(=O)O)CC(=O)O [DTPA, Diethylenetriaminepentaacetic acid] | 95.77% |
| N[C@H](CS)C(=O)O [D-Cysteine] | 93.45% |
| NCCCC[C@H](N)C(=O)O [L-Lysine] | 95.45% |

Same assay, conditions: 48 hours after mixing; 0.03 mCi/ml, excipient 1 mg/ml in sodium acetate-acetic acid buffer pH 5.80, 25° C.

| Compound | Percentage of ^225Ac present in [^225Ac]Ac-DOTA-TATE |
| --- | --- |
| CCO [10% EtOH, EtOH] | 92.16% |
| O=C(O)CC(O)(CC(=O)O)C(=O)O [Citric Acid] | 82.18% |
| O=C(O)c1ccccc1O [Salicylic Acid] | 87.65% |
| CSCC[C@H](N)C(=O)O [L-Methionine] | 89.58% |
| CC(=O)N[C@@H](CS)C(=O)O [N-Acetyl-L-Cysteine] | 87.41% |
| Oc1ccccc1 [Phenol] | 87.88% |
| N[C@@H](CCC(=O)N[C@@H](CS)C(=O)NCC(=O)O)C(=O)O [L-Glutathione] | 85.56% |
| O=C(O)CCCC[C@@H]1CCSS1 (racemic) [Lipoic Acid] | 87.93% |
| O=C(O)CN(CCN(CC(=O)O)CC(=O)O)CCN(CC(=O)O)CC(=O)O [DTPA, Diethylenetriaminepentaacetic acid] | 91.38% |
| O=C1O[C@H]([C@@H](O)CO)C([O-])=C1O.[Na+] [Sodium Ascorbate, pH 5.8, Sodium Ascorbate] | 92.21% |
| N[C@H](CS)C(=O)O [D-Cysteine] | 87.66% |
| NCCCC[C@H](N)C(=O)O [L-Lysine] | 89.52% |
